IC50 data for one molecule are collected here from ChEMBL document CHEMBL5543100 (Eur J Med Chem, 2024).

This assay concerns OS-RC-2. As to the kind of experiment: cells. The conditions noted are these: Homo sapiens, OS-RC-2, 48 h.

Description: Antiproliferative activity against human OS-RC-2 cells assessed as inhibition of cell growth incubated for 48 hrs

Turning to `CNC(=O)c1cc(Oc2ccc(NC(=O)Nc3ccc(Cl)c(C(F)(F)F)c3)cc2)ccn1` [SORAFENIB], the IC50 was around 9 µM.
